Measurements published in BindingDB's records for doi:10.1016/s0960-894x(02)00236-6 (University of Virginia, 2002).

Experiments:
[1] = AE maximal score at Adenosine A1 receptor
[2] = AE maximal score at Adenosine A3 receptor
[3] = AE maximal score at Adenosine A2A receptor

SMILES | EC50 [1] [µM] | EC50 [2] [µM] | EC50 [3] [pM]
CC(=O)Oc1ccc2c(c1)CCc1sc(N)nc1-2 | 158 |  | 
COc1cc2c(cc1OC)-c1nc(N)sc1C2 |  | 794 | 1
COc1ccc2c(c1)CCc1sc(N)nc1-2 | 0.002 |  | 
